Test results from patent publication US20100029654A1, “CARDIOVASCULAR COMPOSITIONS AND USE OF THE SAME FOR THE TREATMENT OF ALZHEIMER'S DISEASE” (MOUNT SINAI SCHOOL OF MEDICINE, priority 2006, published 2010).
Structures can show the parent of a compound that is named as a salt. Where two headings read alike, the source gives them in different places.

Tests used:
[1] = tested on: Aβ1-42; assay: Aβ1-42 content in conditioned medium of primary cortico-hippocampal neuron cultures from Tg2576 mice (ELISA; primary and secondary dose-response screening); type: cell-based, mouse; conditions: for activity at 100 µM: Mus musculus, Neuron, 24 h, read-out: Ab1-42 (% of ctl); for activity at 100 µM / Ab1-42 (% of ctl): drug 100 μM; for reducing Aβ1-42: <85% of ctl
Method in brief: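 This screen tested cardiovascular drugs for Aβ-lowering in Tg2576 embryonic cortico-hippocampal neuron cultures plated at 1.0×10^5 cells per well in poly-D-lysine-coated 96-well plates with Neurobasal/B27 medium. Drugs at 100 μM were added directly to the medium in duplicate, with 1% DMSO alone as the control. Conditioned medium was then collected, and its Aβ1-42 level was quantified with BioSource ELISA kits.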

[2] = tested on: primary cortico-hippocampal neuron cultures; assay: MTT in primary screening
[3] = tested on: primary cortico-hippocampal neuron cultures; assay: lactate dehydrogenase (LDH) activity assay in parallel neuron cultures
Experimental: For in vitro treatments drugs available from “The Spectrum Collection” in stocks of 10 mM in DMSO were applied directly to cultures to the desired concentrations (final 1% DMSO); control primary neuron cultures from Tg2576 embryos were treated with vehicle resulting in a final 1% DMSO.
Cell viability was assessed using a commercial available LDH assay kit according to the manufacture's instruction (Promega).

[4] = tested on: Aβ1-40; assay: Aβ1-40 content in conditioned medium of primary cortico-hippocampal neuron cultures from Tg2576 mice (ELISA; primary and secondary dose-response screening); type: cell-based, mouse; conditions: for activity at 100 µM: Mus musculus, Neuron, 24 h, read-out: Ab1-40 (% of ctl); for activity at 100 µM / Ab1-40 (% of ctl): drug 100 μM; for reduced Aβ1-40: <85% of ctl
Method in brief: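 Primary cortico-hippocampal neurons from embryonic Tg2576 mice were plated at 1.0×10^5 cells per well on poly-D-lysine-coated 96-well plates in Neurobasal with 2% B27, 0.5 mM L-glutamine and 1% penicillin-streptomycin. Cultures received drug in 1% DMSO, and Aβ1-40 in the conditioned medium was measured by BioSource ELISA 24 hours after treatment, relative to vehicle controls.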

[5] = Primary Screening, table sorted by Aβ1-40
[6] = primary screening, Tg2576 neuron cultures, table sorted by Aβ1-42
[7] = primary screening, table sorted by Aβ1-42

Row | SMILES | activity at 100 µM [1, 5] [%] | activity at 100 µM [1, 6] [%] | reducing Aβ1-42 ([1]; primary screening) | MTT (% of ctl) [2, 5] | MTT (% of ctl) [2, 7] | LDH (% of ctl) [3, 5] | LDH (% of ctl) [3, 7] | activity at 100 µM [4, 5] [%] | activity at 100 µM [4, 6] [%] | reduced Aβ1-40 ([4]; primary screening) | Ab1-42 (% of ctl) [1, 5] | Ab1-42 (% of ctl) [1, 6] | Ab1-40 (% of ctl) [4, 5] | Ab1-40 (% of ctl) [4, 6]
1 | CCCCC1=NC2(CCCC2)C(=O)N1Cc1ccc(-c2ccccc2-c2nnn[nH]2)cc1 [Irbesartan] | 82.3 | 82.3 | useful in reducing Aβ1-42 | 98.9 % of ctl | 98.9 % of ctl | 112.5 % of ctl | 112.5 % of ctl | 89.7 | 89.7 |  |  |  |  | 
2 | O=[N+]([O-])O[C@H]1CO[C@H]2[C@@H]1OC[C@H]2O[N+](=O)[O-] [Isosorbide Dinitrate] |  |  | useful in reducing Aβ1-42 | 100.8 % of ctl | 100.8 % of ctl | 124.6 % of ctl | 124.6 % of ctl |  |  | reduced Aβ1-40 |  |  |  | 
3 | CC(=O)O[C@H]1C[C@H](O[C@H]2[C@@H](O)C[C@H](O[C@H]3[C@@H](O)C[C@H](O[C@H]4CC[C@@]5(C)[C@H](CC[C@@H]6[C@@H]5C[C@@H](O)[C@]5(C)[C@@H](C7=CC(=O)OC7)CC[C@]65O)C4)O[C@@H]3C)O[C@@H]2C)O[C@H](C)[C@H]1O[C@@H]1O[C@H](CO)[C@@H](O)[C@H](O)[C@H]1O [Lanatoside C] |  |  |  | 66.5 % of ctl | 66.5 % of ctl | 166.0 % of ctl | 166.0 % of ctl |  |  | reduced Aβ1-40 | 100.3 % of ctl | 100.3 % of ctl | 45.8 % of ctl | 45.8 % of ctl
4 | CNC1(C)C2CCC(C2)C1(C)C (centres unmarked) [Mecamylamine Hydrochloride] | 130 | 130 |  | 114.9 % of ctl | 114.9 % of ctl | 97.0 % of ctl | 97.0 % of ctl | 124 | 124 |  |  |  |  | 
5 | CN1C[C@H](CNC(=O)OCc2ccccc2)C[C@@H]2c3cccc4c3c(cn4C)C[C@H]21 [Metergoline] | 2.3 | 2.3 | useful in reducing Aβ1-42 | 76.5 % of ctl | 76.5 % of ctl | 159.3 % of ctl | 159.3 % of ctl | -3.1 | -3.1 | reduced Aβ1-40 |  |  |  | 
6 | Cc1ccccc1N1C(=O)c2cc(S(N)(=O)=O)c(Cl)cc2NC1C (centres unmarked) [Metolazone] | 98 | 98 |  | 69.7 % of ctl | 69.7 % of ctl | 103.7 % of ctl | 103.7 % of ctl | 104 | 104 |  |  |  |  | 
7 | COCCc1ccc(OCC(O)CNC(C)C)cc1 (centres unmarked) [Metoprolol Tartrate] | 104 | 104 |  | 94.7 % of ctl | 94.7 % of ctl | 107.5 % of ctl | 107.5 % of ctl | 91.4 | 91.4 |  |  |  |  | 
8 | Cc1cccc(C)c1OCC(C)N (centres unmarked) [Mexiletine Hydrochloride] | 115 | 115 |  | 95.6 % of ctl | 95.6 % of ctl | 103.4 % of ctl | 103.4 % of ctl | 91.3 | 91.3 |  |  |  |  | 
9 | COc1ccc(OC)c(C(O)CNC(=O)CN)c1 (centres unmarked) [Midodrine Hydrochloride] | 76.7 | 76.7 | useful in reducing Aβ1-42 | 87.8 % of ctl | 87.8 % of ctl | 105.6 % of ctl | 105.6 % of ctl | 86 | 86 |  |  |  |  | 
10 | Nc1cc(N2CCCCC2)nc(N)[n+]1[O-] [Minoxidil] | 98.9 | 98.9 |  | 98.5 % of ctl | 98.5 % of ctl | 117.1 % of ctl | 117.1 % of ctl | 94.2 | 94.2 |  |  |  |  | 
11 | CCOC(=O)[N-]c1cn(N2CCOCC2)n[o+]1 [Molsidomine] | 121 | 121 |  | 15.0 % of ctl | 15.0 % of ctl | 1127.4 % of ctl | 1127.4 % of ctl | 118 | 118 |  |  |  |  | 
12 | NC(N)=NC(=O)c1nc(Cl)c(N2CCCCCC2)nc1N [N,N-Hexamethyleneamiloride] |  |  | useful in reducing Aβ1-42 | 96.1 % of ctl | 96.1 % of ctl | 117.3 % of ctl | 117.3 % of ctl |  |  | reduced Aβ1-40 | 26.2 % of ctl | 26.2 % of ctl | 15.4 % of ctl | 15.4 % of ctl
13 | CC(C)(C)NCC(O)COc1cccc2c1CC(O)C(O)C2 (centres unmarked) [Nadolol] | 113 | 113 |  | 102.8 % of ctl | 102.8 % of ctl | 106.5 % of ctl | 106.5 % of ctl | 94.2 | 94.2 |  |  |  |  | 
14 | CCN(CC)CCOC(=O)C(Cc1cccc2ccccc12)CC1CCCO1 (centres unmarked) [Nafronyl Oxalate] | 145 | 145 |  | 103.2 % of ctl | 103.2 % of ctl | 96.6 % of ctl | 96.6 % of ctl | 134 | 134 |  |  |  |  | 
15 | O=C(O)c1cccnc1 [Niacin] | 95 | 95 |  | 61.0 % of ctl | 61.0 % of ctl | 134.5 % of ctl | 134.5 % of ctl | 101 | 101 |  |  |  |  | 
16 | CO[C@]12C[C@@H](COC(=O)c3cncc(Br)c3)CN(C)[C@@H]1Cc1cn(C)c3cccc2c13 [Nicergoline] | 98.5 | 98.5 |  | 99.8 % of ctl | 99.8 % of ctl | 106.2 % of ctl | 106.2 % of ctl | 76.1 | 76.1 | reduced Aβ1-40 |  |  |  | 
